# Like-named read-outs stand apart in the source and are kept apart here.
# Biological target: T1, BpGCDH; glutaryl-CoA dehydrogenase from B. pseudomallei (Burkholderia pseudomallei, UniProt Q3JP94)
# T1 construct: gene BURPS1710b_3237
# Conditions: apo crystal without FAD, pH 7.5, individual soak 10-25 mM
# T1 sequence (Q3JP94 1-395 limits assumed): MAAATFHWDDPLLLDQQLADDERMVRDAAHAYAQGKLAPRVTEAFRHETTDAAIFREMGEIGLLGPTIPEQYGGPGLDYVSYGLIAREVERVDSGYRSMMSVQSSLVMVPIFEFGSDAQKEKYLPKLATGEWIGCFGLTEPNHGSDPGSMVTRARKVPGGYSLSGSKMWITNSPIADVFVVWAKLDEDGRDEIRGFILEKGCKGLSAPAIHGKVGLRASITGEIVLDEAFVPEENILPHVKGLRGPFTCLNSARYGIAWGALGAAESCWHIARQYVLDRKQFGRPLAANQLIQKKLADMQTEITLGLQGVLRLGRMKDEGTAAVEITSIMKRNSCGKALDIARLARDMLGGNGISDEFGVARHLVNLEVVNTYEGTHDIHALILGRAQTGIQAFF
smiles,measurement,setting,value
COC(=O)c1cccs1 [FOL544],X-ray crystal structure (fragment soak),"glutaryl (substrate) site, one active site per tetramer",FOL544 (methyl thiophene-2-carboxylate; PDB entry 3d6b)
"CN1CCN(C)c2cc(CN)ccc21 [FOL680, (1,4-dimethyl-1,2,3,4-tetrahydroquinoxalin-6-yl)methylamine]",X-ray crystal structure (fragment soak),"flavin site of FAD, second molecule in substrate site of one protomer, three per tetramer",FOL680 occupies the binding site for the flavin ring of the FAD cofactor
"CC(C)n1c(S(=O)(=O)O)nc2ccccc21 [FOL6421, 1-(1-methylethyl)-1H-benzimidazole-2-sulfonate]",X-ray crystal structure (fragment soak),"glutaryl (substrate) site, all four active sites, HEPES also modelled at tetramer interface",FOL6421 (PDB entry 3gnc) was observed bound in all four active sites of tetrameric BpGCDH

# Reference: article PMC3169403 (Acta Crystallographica Section F: Structural Biology and …, 2011)
